# Laboratory results taken from article PMC7822874, “Chemoprotective antimalarials identified through quantitative high-throughput screening of Plasmodium blood and liver stage parasites” (Scientific Reports, 2021).
# Several values for one entry are separate records, joined by “and”; a condition that tells them apart may be missing. Equal values may be shown once. Read-outs that look alike come from different tables or passages of the source.
# Columns and labels:
# in vitro [1] = details: human, hepg2-a16-cd81egfp cells, % viability
# [2] = system: Plasmodium falciparum Dd2 asexual blood stage parasites; experiment: microbe, parasite or virus in culture; set-up: species or system Plasmodium falciparum Dd2 in human erythrocytes; single determination (one 11-point concentration-response curve); details: Plasmodium falciparum, DD2, Erythrocyte, 72 h; read-out: AC50
# [3] = system: T1, Plasmodium falciparum Dd2-attB-ScDHODH (transgenic line expressing yeast DHODH), asexual blood stages; experiment: organism not typed; set-up: replicate k of 3 (each line is one of three independent assays; the three lines of one compound and parasite line follow each other)
# T1 construct: Dd2-attB-ScDHODH, the transgenic line that expresses yeast DHODH
# Procedure, shortened: (§1)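 Both lines were tested side by side with selected compounds, repeated in three independent assays. Differences between parental and ScDHODH-expressing parasites were then assessed with a two-sided Student's t-test.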
# [4] = system: T2, Plasmodium falciparum Dd2-attB (parental line), asexual blood stages; experiment: microbe, parasite or virus in culture; set-up: replicate k of 3 (each line is one of three independent assays; the three lines of one compound and parasite line follow each other); details: n = 1; for Individual replicates / Log AC50 (M): 72 h; for AC50: Plasmodium falciparum, DD2, 72 h, read-out: Individual replicates / Log AC50 (converted)
# T2 construct: Dd2-attB, the isogenic parental line
# Procedure, shortened: as §1
# HepG2-A16-CD81EGFP cells = details: average of 2 wells, repeat 2
# in vitro [5] = details: human, HepG2-A16-CD81EGFP cells, uninfected
# [6] = system: P. berghei-ANKA-GFP-LucCON liver stage parasites in HepG2-A16-CD81EGFP cells; experiment: P. berghei liver stage Pb-Luc assay, Method 1 (UCSD, 1536-well); assay type: cell-based, Plasmodium berghei; details: for activity at 1 µM / activity at 3 µM: 48 h, average of 2 wells, 1536-well plate; for activity at 1 µM: nominal 1 uM (10 mM stock), […] for 15 mM, 1.2 uM for 12 mM, 2 uM for 20 mM stock; for activity at 3 µM: nominal 3 uM (10 mM stock), 4.5 uM for 15 mM, 3.6 uM for 12 mM, 6 uM for 20 mM stock; as to Pb-Luc signal, 1 uM, repeat 1: reference of the scale not given here; as to Pb-Luc signal, 1 uM, repeat 2: reference of the scale not given here; as to Pb-Luc signal, 1 uM, repeat 3: reference of the scale not given here; as to Pb-Luc signal, 3 uM, repeat 1: reference of the scale not given here; as to Pb-Luc signal, 3 uM, repeat 2: reference of the scale not given here; as to Pb-Luc signal, 3 uM, repeat 3: reference of the scale not given here
# [7] = 72 h; n = 1; read-out: Individual replicates / Log AC50 (converted)
SMILES,viability at 3 µM (in vitro [1]) [%],"Individual replicates / Log AC50 (M) ([3]; 72 h, n = 1)","AC50 [3, 7] [µM]",Individual replicates / Log AC50 (M) [4],AC50 [4] [µM],further results
Oc1cccc(Nc2nc(NCC3CCCO3)c3ccccc3n2)c1 (stereo not shown) [MLS000026845],95.5,–,–,–,–,–
Oc1ccc(CN2CCCCC2)nc1-c1ccccc1 [MLS000031925],99.7,–,–,–,–,–
Cc1ccc(NC(=O)N(Cc2ccc3c(c2)OCO3)Cc2cc3cc4c(cc3[nH]c2=O)OCCO4)cc1 [MLS000033889],101,–,–,–,–,–
CCOC(=O)c1c(CN(C)C)oc2cc(CN(C)C)c(O)c(CSc3ccccc3)c12 [MLS000038262],104,–,–,–,–,–
CN(C)Cc1c(O)ccc2oc(Cc3ccccc3)cc12 [MLS000039159],89.6,–,–,–,–,–
Cc1ccc(O)c(-c2cc(C(=O)Nc3ccc(S(=O)(=O)N4CC(C)OC(C)C4)cc3)n[nH]2)c1 (stereo not shown) [MLS000042695],87.1,–,–,–,–,–
Cc1cc(O)c(-c2cc(C(=O)Nc3ccc(S(=O)(=O)N4CCOCC4)cc3)[nH]n2)cc1C [MLS000042703],93.1,–,–,–,–,–
CC(C)(C)Nc1nc(NC(C)(C)C)nc(-n2ccnc2)n1 [MLS000044025],90.9,–,–,–,–,–
COc1ccccc1CNC(=O)CCn1c(=O)[nH]c2ccsc2c1=O [MLS000044764],109,–,–,–,–,–
COc1cc(C2NCc3ccccc3-n3cccc32)ccc1O (stereo not shown) [MLS000047988],102,–,–,–,–,–
c1ccc(-c2cccc(-c3ccccn3)n2)nc1 [MLS000048666],19.2,–,–,–,–,–
Oc1ccc(CNc2ccc(C(F)(F)F)cc2Cl)c2cccnc12 [NCGC00183375-01],–,-5.2486 Log AC50 (M) and -5.0986 Log AC50 (M),5.03,-5.2986 Log AC50 (M) and -5.3486 Log AC50 (M),5.03,AC50 [2]: 10.6 µM
CCCN1C(CC(C)C)=N[S+](=O)([O-])c2cc(NC(=O)c3cccs3)ccc21 [NCGC00473217-01],–,-6.2986 Log AC50 (M),0.71,-7.2986 Log AC50 (M) and -6.9486 Log AC50 (M) and -6.9986 Log AC50 (M),–,"AC50 [2]: 0.335 µM; HepG2 viability signal, 1 uM, repeat 2 (HepG2-A16-CD81EGFP cells; nominal 1 uM (10 mM stock), […] for 15 mM, 1.2 uM for 12 mM, 2 uM for 20 mM stock): 104.11%; HepG2 viability signal, 3 uM, repeat 2 (HepG2-A16-CD81EGFP cells; nominal 3 uM (10 mM stock), 4.5 uM for 15 mM, 3.6 uM for 12 mM, 6 uM for 20 mM stock): 105.41%; viability at 48 h, 1 µM (in vitro [5]): 105%; viability at 48 h, 3 µM (in vitro [5]): 106%; Max Resp (signal direction of the dose response) ([6]; Method 1, Decrease = decreasing P. berghei viability with dose, Increase = increasing signal, Inactive = no dose response): Decrease; AC50 ([6]; Method 1, Hill fit, 50% of maximum activity response, read-out: AC50): 0.00316 µM; Log AC50 (M) ([6]; Method 1, log10 of molar AC50 from Hill fit): -8.500 M; activity at 1 µM ([6]; Plasmodium berghei, repeat 1, read-out: Pb-Luc signal, 1 uM, repeat 1): 8.62%; activity at 1 µM ([6]; Plasmodium berghei, repeat 2, read-out: Pb-Luc signal, 1 uM, repeat 2): 7.89%; activity at 1 µM ([6]; Plasmodium berghei, repeat 3, read-out: Pb-Luc signal, 1 uM, repeat 3): 4.31%; activity at 3 µM ([6]; Plasmodium berghei, repeat 1, read-out: Pb-Luc signal, 3 uM, repeat 1): 2.42%; activity at 3 µM ([6]; Plasmodium berghei, repeat 2, read-out: Pb-Luc signal, 3 uM, repeat 2): 3.74%; activity at 3 µM ([6]; Plasmodium berghei, repeat 3, read-out: Pb-Luc signal, 3 uM, repeat 3): 3.33%; AC50 ([6]; Plasmodium berghei, Method 1, Hill fit, 50% of maximum activity response, read-out: AC50): 0.00282 µM; AC50 ([6]; Plasmodium berghei, Method 1, log10 of molar AC50 from Hill fit, read-out: Log AC50 (converted)): 0.00282 µM"
CCCCOC(=O)c1ccnc2cc(-c3nc4ccccc4[nH]3)sc12 [NCGC00482448-01],–,-5.5986 Log AC50 (M) and -5.6986 Log AC50 (M),2,-5.7486 Log AC50 (M) and -5.6986 Log AC50 (M),2,–
N#CNC(=O)c1ccnc2cc(C(OCCN3CCCCC3)c3ccccc3Cl)sc12 (stereo not shown) [NCGC00483126-01],–,-4.7986 Log AC50 (M),15.9,-4.8986 Log AC50 (M) and -4.7486 Log AC50 (M),14.2,–
CCOC(=O)c1ccnc(-n2ncc(C(OCCN3CCCCC3)c3ccccc3)c2-c2ccccc2Cl)c1 (stereo not shown) [NCGC00484789-01],–,-5.0486 Log AC50 (M) and -4.9486 Log AC50 (M),14.2,-5.0486 Log AC50 (M) and -4.9986 Log AC50 (M),8.94,–

SMILES,viability at 3 µM (in vitro [1]) [%],"Individual replicates / Log AC50 (M) ([3]; 72 h, n = 1)","AC50 [3, 7] [µM]",Individual replicates / Log AC50 (M) [4],AC50 [4] [µM],further results
O=C(O)c1ccnc2cc(-c3nc4ccccc4n3CCN3CCCCC3)sc12 [NCGC00485470-01],–,-5.2486 Log AC50 (M),7.1,-5.2986 Log AC50 (M) and -5.1986 Log AC50 (M),6.33,–
O=C(O)c1ccnc(-n2ncc(C(OCCN3CCCCC3)c3ccc(Cl)cc3)c2-c2ccccc2)c1 (stereo not shown) [NCGC00487049-01],–,-4.7486 Log AC50 (M),15.9,-4.7986 Log AC50 (M) and -4.8486 Log AC50 (M),15.9,–
O=C(O)c1ccnc(-n2ncc(C(CC3CC3)OCCN3CCCCC3)c2-c2cccc(-c3ccccc3)c2)c1 (stereo not shown) [NCGC00487050-01],–,-4.7986 Log AC50 (M) and -4.7486 Log AC50 (M),17.8,-4.7986 Log AC50 (M) and -4.8486 Log AC50 (M),15.9,–
O=C(O)c1ccnc(-n2ncc(C(OCCN3CCCCC3)c3cccc(-c4ccccc4)c3)c2-c2cccc(-c3ccccc3)c2)c1 (stereo not shown) [NCGC00487052-01],–,-5.4986 Log AC50 (M) and -5.2986 Log AC50 (M) (2×),–,-5.3986 Log AC50 (M),4.48,–
O=C(O)c1ccnc(-n2ncc(C(OCCN3CCCCC3)c3cccc(-c4ccccc4)c3)c2-c2cccc(-c3ccccc3)c2)c1 (stereo not shown) [NCGC00487052-02],–,-5.1486 Log AC50 (M) and -5.2486 Log AC50 (M),–,-5.3986 Log AC50 (M) and -5.4486 Log AC50 (M) and -5.3486 Log AC50 (M),–,–
CC(C)c1c(-c2cnn(C(C)(C)C)c2)[nH]c2c(C#N)cnn2c1=O [NCGC00488278-02],–,-4.7986 Log AC50 (M),10,–,15.9,–
CC(C)c1c(-c2cnn(C(C)(C)C)c2)[nH]c2c(C#N)cnn2c1=O [NCGC00488278-03],–,-4.8986 Log AC50 (M),–,-4.7486 Log AC50 (M),–,–
CC(C)OC(=O)c1ccnc2cc(C(OCCN3CCCCC3)c3cccc(N)c3)sc12 (stereo not shown) [NCGC00488684-01],–,-5.0986 Log AC50 (M),12.6,-5.1986 Log AC50 (M) and -5.1486 Log AC50 (M),7.1,–
CN1CCC(CNCc2nccc3c(=O)[nH]c(COc4ccc(Cc5ccccc5)cc4)nc23)C1 (stereo not shown) [NCGC00489856-01],–,–,17.8,-4.7986 Log AC50 (M) and -4.8486 Log AC50 (M),15.9,–
C=CC(=O)Nc1cccc(C(OCCN2CCCCC2)c2cc3nccc(C(=O)OC(C)C)c3s2)c1 (stereo not shown) [NCGC00493267-01],–,-5.0486 Log AC50 (M) and -4.7986 Log AC50 (M),7.97,-5.1486 Log AC50 (M) and -5.0486 Log AC50 (M),8.94,–
Cc1nn2c(c1-c1ccccc1-c1ccccc1)N(Cc1cccc(C#N)c1)CCC2 [NCGC00499314-01],–,-4.9986 Log AC50 (M) and -5.0986 Log AC50 (M),10,-5.1486 Log AC50 (M) and -5.0486 Log AC50 (M),8.94,–
Cc1cccc(CN2CCCn3nc(C)c(-c4ccccc4OCc4ccccc4)c32)n1 [NCGC00499716-01],–,-4.8486 Log AC50 (M),12.6,-4.8986 Log AC50 (M) and -4.7486 Log AC50 (M),15.9,–
Cc1nn2c(c1-c1ccccc1Oc1ccccc1)N(CCCc1ccccc1)CCC2 [NCGC00499718-01],–,–,15.9,-4.7986 Log AC50 (M),15.9,Individual replicates / Log AC50 (M) ([3]; 72 h; n = 1): -4.7986 Log AC50 (M)
Cc1cccc(CN2CCCn3nc(C)c(-c4ccccc4Oc4ccccc4)c32)n1 [NCGC00499720-01],–,-4.7986 Log AC50 (M),15.9,-4.7486 Log AC50 (M),20,–
Cc1nn2c(c1-c1ccccc1-c1ccccc1)N(CCCc1ccccc1)CCC2 [NCGC00500005-01],–,-5.0486 Log AC50 (M) and -4.8986 Log AC50 (M),8.94,-5.0486 Log AC50 (M),7.97,–
